Measurements published in patent publication US20250269039A1, “THERAPEUTIC-OLIGONUCLEOTIDES ACTIVATED BY NUCLEASES” (priority 2020, published 2025).
Values after ≈ are worked out from the molar mass of the structure shown. Where two headings read alike, the source gives them in different places.

Columns and labels:
S. enterica ATCC 14028 = assay: Broth microdilution MIC and growth inhibition (control bacteria); assay type: cell-based; conditions: for MIC: TOUCAN as NA equivalent
From the text: (§1) Bacteria strains. S. aureus NCTC 12493 (MRSA), S. aureus ATCC 29213 (MSSA), S. aureus ATCC 43300 (MRSA), S. aureus ATCC 1707 (MRSA), S. aureus ATCC 1717 (MRSA), S. aureus ATCC 1747 (MRSA), S. aureus ATCC 1761 (MRSA), S. aureus ATCC 1766 (MRSA), S. aureus ATCC 1768 (MRSA), S. epidermidis ATCC 35984, E. coli ATCC 25922, K. pneumoniae ATCC 13883, P. mirabilis ATCC 25933, S. enterica ATCC 14028 and P. aeruginosa ATCC 10145 strains were used in this study. Bacteria were initially inoculated onto tryptone soy agar with 5% defibrinated sheep blood (Thermo Fisher Scientific, Inc., Waltham, MA, USA) and incubated at 37° C. for 24 hours. Then, single colonies of each strain were transferred to tryptone soy broth (Thermo Fisher Scientific) for the nuclease activity assay or antimicrobial susceptibility testing, respectively.
(§2) Antimicrobial susceptibility testing. Minimal inhibitory concentrations (MIC) of all nucleoside analogues and TOUCANs against each bacteria strain were determined using broth microdilution method. A single colony obtained from overnight culture on tryptone soy agar with 5% defibrinated sheep blood was inoculated in cation-adjusted Mueller Hinton Broth and adjusted to 10^6 CFU/mL. TOUCANs were prepared in PBS+/+ (treatment) and serial dilutions were made in 96-well polystyrene round bottom microwell plates with 50 μL final volume for each concentration. PBS+/+ was used as untreated control. Next, 50 μL bacteria solutions were added to each well to a final bacteria concentration of 5×10^5 CFU/mL. Plates were incubated at 37° C. in Cytation 1 Cell Imaging Multimode Reader. Growth curves were obtained by measuring optical densities at 600 nm every 10 minutes for 18 hours using Cytation 1 Cell Imaging Multimode Reader. In addition, visual inspection of the plates was carried out after 18 hours and photographs were taken. MICs were defined as the lowest drug concentration in the microwell at which bacterial growth was not visible at the end of the incubation period. Besides MIC determination, specificity of TOUCAN 7mGe was also shown with subcultures on chromogenic media. For this purpose, 5 μL of different concentrations of each strain were inoculated onto CHROM agar Orientation Media (Becton Dickinson) and the bacterial growth of each bacteria strain tested was observed by naked eye after incubation at 37° C. for 24 hours. Finally, photographs of the chromogenic media were taken.

P. aeruginosa ATCC 10145 = assay: as above; assay type: cell-based; conditions: for MIC: TOUCAN as NA equivalent
From the text: as §1, §2

K. pneumoniae ATCC 13883 = assay: as above; assay type: cell-based; conditions: for MIC: TOUCAN as NA equivalent
From the text: as §1, §2

[1] = test system: S. epidermidis ATCC 35984; assay: as above; assay type: cell-based, Staphylococcus epidermidis; conditions: for MIC: 18 h, TOUCAN as NA equivalent
From the text: as §1, §2

E. coli ATCC 25922 = assay: as above; assay type: cell-based, Escherichia coli; conditions: for MIC: TOUCAN as NA equivalent
From the text: as §1, §2

P. mirabilis ATCC 25933 = assay: as above; assay type: cell-based, Proteus mirabilis; conditions: for MIC: TOUCAN as NA equivalent
From the text: as §1, §2

[2] = Complete blood counts of infected/treated mice; conditions: for percentage of neutrophils in blood: infected treated mice, after 24 hours, FIG. 7i; for BAS / BAS % / EO / EO % / HCT / HGB / LYM / LYM % / MCH / MCHC / MCV / MON / MON % / NE / NE % / PLT / RBC / RET / RET % / WBC: infected/treated mice, blood after 24 hours, AVG, n = 4; for change of red blood cells (RBCs), hematocrit and hemoglobin (acute blood toxicity): treated mice versus uninfected and placebo groups, FIG. 11
[3] = test system: S. aureus ATCC 29213 (MSSA); assay: Broth microdilution MIC and growth inhibition; assay type: cell-based, Staphylococcus aureus
Method in brief: (§3)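 Broth microdilution in cation-adjusted Mueller Hinton Broth, final inoculum 5×10^5 CFU/mL, with compounds serially diluted in PBS+/+ (PBS+/+ alone as untreated control). Incubation was at 37° C with OD600 read every 10 minutes for 18 hours. MIC was the lowest concentration without visible growth after 18 hours.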

[4] = test system: S. aureus ATCC 1768 (MRSA); assay: Broth microdilution MIC and growth inhibition; assay type: cell-based, Staphylococcus aureus; conditions: for MIC: 18 h, TOUCAN as NA equivalent
Method in brief: as §3

[5] = test system: S. aureus ATCC 1707 (MRSA); assay: Broth microdilution MIC and growth inhibition; assay type: cell-based, Staphylococcus aureus; conditions: for MIC: 18 h, TOUCAN as NA equivalent
Method in brief: as §3

[6] = test system: S. aureus ATCC 1766 (MRSA); assay: Broth microdilution MIC and growth inhibition; assay type: cell-based, Staphylococcus aureus; conditions: for growth inhibition, dose response: ATCC-1766 (MRSA), FIGS. 5e-f; for MIC: 18 h, TOUCAN as NA equivalent
Method in brief: as §3

S. aureus = assay: Growth inhibition curves / MICs in S. aureus cultures (strain not named or summary over strains); assay type: cell-based, Staphylococcus aureus; conditions: Staphylococcus aureus, read-out: MIC values over all S. aureus strains tested
Experimental: as §2

[7] = Staphylococcus aureus, read-out: MIC

## mU-mU-mU-mU-T-T-Fx [TOUCAN 7mFx]
S. enterica ATCC 14028; 18 h
  MIC: >40 µg/mL
S. enterica ATCC 14028; mean ± SD, n = 3
  TOUCAN % Growth inhibition: 10.8 ± 2.1%
P. aeruginosa ATCC 10145; 18 h
  MIC: >40 µg/mL
P. aeruginosa ATCC 10145; mean ± SD, n = 3
  TOUCAN % Growth inhibition: 7.2 ± 1.4%
K. pneumoniae ATCC 13883; 18 h
  MIC: >40 µg/mL
K. pneumoniae ATCC 13883; mean ± SD, n = 3
  TOUCAN % Growth inhibition: 0 ± 0.00%
[1]; S. epidermidis ATCC 35984
  MIC: >40 µg/mL
[1]; S. epidermidis ATCC 35984, mean ± SD, n = 3
  TOUCAN % Growth inhibition: 7.4 ± 4.0%
[1]; S. epidermidis, all concentrations tested, FIG. 5
  growth inhibition, dose response: no growth inhibition
E. coli ATCC 25922; 18 h
  MIC: >40 µg/mL
E. coli ATCC 25922; mean ± SD, n = 3
  TOUCAN % Growth inhibition: 0 ± 0.00%
P. mirabilis ATCC 25933; 18 h
  MIC: >40 µg/mL
P. mirabilis ATCC 25933; mean ± SD, n = 3
  TOUCAN % Growth inhibition: 45.5 ± 0.4%
[2]
  percentage of neutrophils in blood: 13.8%
  BAS: 0.0 10^9/L
  BAS %: 0.3%
  EO: 0.0 10^9/L
  EO %: 1.3%
  HCT: 44.5%
  HGB: 14.0 g/dL
  LYM: 1.6 10^9/L
  LYM %: 68.6%
  MCH: 15.0 pg
  MCHC: 31.4 g/dL
  MCV: 47.9 fL
  MON: 0.4 10^9/L
  MON %: 15.7%
  NE: 0.3 10^9/L
  NE %: 14.1%
  PLT: 630.0 K/μL
  RBC: 9.3e+12 L⁻¹
  RET: 257.7 K/μL
  RET %: 2.8%
  WBC: 2.4 10^9/L
  change of red blood cells (RBCs), hematocrit and hemoglobin (acute blood toxicity): no difference
[3]; S. aureus ATCC 29213 (MSSA)
  TOUCAN MIC/NA MIC TOUCAN Efficacy Ratio (TER): 250
[3]; S. aureus ATCC 29213 (MSSA), 18 h, TOUCAN as NA equivalent
  MIC: 20 µg/mL
[3]; S. aureus ATCC 29213 (MSSA), mean ± SD, n = 3
  TOUCAN % Growth inhibition: 92.3 ± 0.09%
[4]
  TOUCAN MIC/NA MIC TOUCAN Efficacy Ratio (TER): 62.5
  MIC: 2.5 µg/mL
[4]; mean ± SD, n = 3
  TOUCAN % Growth inhibition: 93.2 ± 0.3%
[5]
  TOUCAN MIC/NA MIC TOUCAN Efficacy Ratio (TER): 125
  MIC: 5 µg/mL
[5]; mean ± SD, n = 3
  TOUCAN % Growth inhibition: 94.6 ± 0.08%
[6]; 0.31 μg/mL
  growth inhibition, dose response: partial inhibition
[6]; concentrations from 0.62 to 10 μg/mL
  growth inhibition, dose response: efficient inhibition
[6]; S. aureus ATCC 1766 (MRSA)
  TOUCAN MIC/NA MIC TOUCAN Efficacy Ratio (TER): 15.5
  MIC: 0.62 µg/mL
[6]; S. aureus ATCC 1766 (MRSA), mean ± SD, n = 3
  TOUCAN % Growth inhibition: 93.6 ± 0.1%

## O=c1[nH]c(=O)n([C@H]2C[C@H](O)[C@@H](CO)O2)cc1F [Floxuridine, reference compound]
S. enterica ATCC 14028; Salmonella enterica, ATCC14028, 18 h, read-out: MIC
  MIC: 20 µg/mL
P. aeruginosa ATCC 10145; Pseudomonas aeruginosa, ATCC10145, 18 h, read-out: MIC
  MIC: > 40 µg/mL
K. pneumoniae ATCC 13883; Klebsiella pneumoniae, ATCC13883, 18 h, read-out: MIC
  MIC: 20 µg/mL
S. aureus
  MIC: 0.005 to 0.32 µg/mL (≈ 0.0203 to 1.3 µM)
[1]; Staphylococcus epidermidis, ATCC35984, S. epidermidis ATCC 35984, read-out: MIC
  MIC: 0.04 µg/mL
E. coli ATCC 25922; Escherichia coli, ATCC25922, 18 h, read-out: MIC
  MIC: 20 µg/mL
P. mirabilis ATCC 25933; Proteus mirabilis, ATCC25933, 18 h, read-out: MIC
  MIC: 5 µg/mL
[2]
  percentage of neutrophils in blood: 30.3%
  BAS: 0.0 10^9/L
  BAS %: 0.5%
  EO: 0.0 10^9/L
  EO %: 1.0%
  HCT: 40.8%
  HGB: 12.8 g/dL
  LYM: 1.1 10^9/L
  LYM %: 48.9%
  MCH: 14.8 pg
  MCHC: 31.5 g/dL
  MCV: 47.4 fL
  MON: 0.3 10^9/L
  MON %: 13.5%
  NE: 0.7 10^9/L
  NE %: 36.1%
  PLT: 599.3 K/μL
  RBC: 8.6e+12 L⁻¹
  RET: 384.9 K/μL
  RET %: 4.5%
  WBC: 2.2 10^9/L
  change of red blood cells (RBCs), hematocrit and hemoglobin (acute blood toxicity): reduction
[3]; Staphylococcus aureus, S. aureus ATCC 29213 (MSSA), 18 h, TOUCAN as NA equivalent, read-out: MIC
  MIC: 0.08 µg/mL
[3]; Staphylococcus aureus, Table 1, S. aureus ATCC 29213, read-out: MIC
  MIC: 0.08 µg/mL (≈ 0.325 µM)
[3]; Table 1, S. aureus ATCC 29213, mean ± SD, n = 3
  % Growth inhibition: 93.1 ± 0.3%
[4]; [7]
  MIC: 0.04 µg/mL
[5]; [7]
  MIC: 0.04 µg/mL
[6]; Staphylococcus aureus, S. aureus ATCC 1766 (MRSA), read-out: MIC
  MIC: 0.04 µg/mL
